Our source for the fold change (FC) and Activity values is ChEMBL document CHEMBL4421728, “Bach1 Inhibitors in Combination with Nrf2 Activators and Pharmaceutical Compositions Thereof” (2017).

The target in test [1] is T1, Transcription regulator protein BACH1 (Homo sapiens) (UniProt O14867).
T1 sequence (whole entry): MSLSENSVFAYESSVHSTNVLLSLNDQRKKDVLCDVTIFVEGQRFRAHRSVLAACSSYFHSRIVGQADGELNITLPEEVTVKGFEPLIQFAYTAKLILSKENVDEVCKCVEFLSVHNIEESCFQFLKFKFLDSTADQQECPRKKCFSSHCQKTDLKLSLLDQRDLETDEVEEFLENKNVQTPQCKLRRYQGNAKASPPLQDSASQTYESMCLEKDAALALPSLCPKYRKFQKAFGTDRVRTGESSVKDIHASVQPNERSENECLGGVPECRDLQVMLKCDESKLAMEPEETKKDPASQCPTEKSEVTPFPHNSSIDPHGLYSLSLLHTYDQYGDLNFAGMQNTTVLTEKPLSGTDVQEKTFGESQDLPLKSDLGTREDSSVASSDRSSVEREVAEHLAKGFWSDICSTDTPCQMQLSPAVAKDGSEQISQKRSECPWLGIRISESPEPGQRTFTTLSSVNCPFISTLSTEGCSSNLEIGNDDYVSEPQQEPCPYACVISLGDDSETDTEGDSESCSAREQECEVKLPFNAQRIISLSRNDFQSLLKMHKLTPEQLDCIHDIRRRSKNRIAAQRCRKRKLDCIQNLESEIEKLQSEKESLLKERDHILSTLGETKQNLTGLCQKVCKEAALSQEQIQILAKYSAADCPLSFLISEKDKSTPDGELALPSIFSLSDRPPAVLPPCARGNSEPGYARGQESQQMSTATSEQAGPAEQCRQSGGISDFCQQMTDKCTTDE
Description: Inhibition of Bach1 in normal human lung fibroblasts assessed as induction of HMOX protein expression at 0.078 uM incubated for 16 to 18 hrs by immunostaining relative to control.

The target in test [2] is T1, Transcription regulator protein BACH1 (Homo sapiens). The test is described as follows: Inhibition of Bach1 in normal human lung fibroblasts assessed as induction of HMOX protein expression by measuring HMOX positive cells level at 0.019 uM in presence of 0.03 uM Nrf2 activator DMF incubated for 16 to 18 hrs by immunostaining relative to control DMSO. On the set-up: scale not given: the % may be the effect or the level left.

For test [3] the target is unchanged. Description: Inhibition of Bach1 in normal human lung fibroblasts assessed as induction of HMOX protein expression by measuring HMOX positive cells level at 0.019 uM in presence of 0.1 uM Nrf2 activator DMF incubated for 16 to 18 hrs by immunostaining relative to control DMSO. On the set-up: scale not given: the % may be the effect or the level left.
The target is the same in test [4]. Description: Inhibition of Bach1 in normal human lung fibroblasts assessed as induction of HMOX protein expression by measuring HMOX positive cells level at 0.019 uM in presence of 0.3 uM Nrf2 activator DMF incubated for 16 to 18 hrs by immunostaining relative to control DMSO. On the set-up: scale not given: the % may be the effect or the level left.
Test [5] shares this target. Description: Inhibition of Bach1 in normal human lung fibroblasts assessed as induction of HMOX protein expression by measuring HMOX positive cells level at 0.019 uM in presence of 1 uM Nrf2 activator DMF incubated for 16 to 18 hrs by immunostaining relative to control DMSO. On the set-up: scale not given: the % may be the effect or the level left.
The target is the same in test [6]. The test is described as follows: Inhibition of Bach1 in normal human lung fibroblasts assessed as induction of HMOX protein expression by measuring HMOX positive cells level at 0.019 uM in presence of 3 uM Nrf2 activator DMF incubated for 16 to 18 hrs by immunostaining relative to control DMSO. On the set-up: scale not given: the % may be the effect or the level left.

Test [7] has the same target. The test is described as follows: Inhibition of Bach1 in normal human lung fibroblasts assessed as induction of HMOX protein expression by measuring HMOX positive cells level at 0.078 uM in presence of 3 uM Nrf2 activator DMF incubated for 16 to 18 hrs by immunostaining relative to control DMSO. On the set-up: scale not given: the % may be the effect or the level left.

Test [8] has the same target. Description: Inhibition of Bach1 in normal human lung fibroblasts assessed as induction of HMOX protein expression by measuring HMOX positive cells level at 0.156 uM in presence of 3 uM Nrf2 activator DMF incubated for 16 to 18 hrs by immunostaining relative to control DMSO. On the set-up: scale not given: the % may be the effect or the level left.
Test [9] has the same target. Description: Inhibition of Bach1 in normal human lung fibroblasts assessed as induction of HMOX protein expression by measuring HMOX positive cells level at 0.156 uM in presence of 10 uM Nrf2 activator DMF incubated for 16 to 18 hrs by immunostaining relative to control DMSO. On the set-up: scale not given: the % may be the effect or the level left.
Test [10] has the same target. Description: Inhibition of Bach1 in normal human lung fibroblasts assessed as induction of HMOX protein expression by measuring HMOX positive cells level at 0.078 uM in presence of 30 uM Nrf2 activator DMF incubated for 16 to 18 hrs by immunostaining relative to control DMSO. On the set-up: scale not given: the % may be the effect or the level left.
The target is the same in test [11]. Description: Inhibition of Bach1 in normal human lung fibroblasts assessed as induction of HMOX protein expression at 0.019 uM in presence of 0.03 uM Nrf2 activator DMF incubated for 16 to 18 hrs by immunostaining relative to control.
Test [12] has the same target. The test is described as follows: Inhibition of Bach1 in normal human lung fibroblasts assessed as induction of HMOX protein expression at 0.039 uM in presence of 0.03 uM Nrf2 activator DMF incubated for 16 to 18 hrs by immunostaining relative to control.
Test [13] shares this target. The test is described as follows: Inhibition of Bach1 in normal human lung fibroblasts assessed as induction of HMOX protein expression at 0.078 uM in presence of 0.1 uM Nrf2 activator DMF incubated for 16 to 18 hrs by immunostaining relative to control.
Test [14] has the same target. The test is described as follows: Inhibition of Bach1 in normal human lung fibroblasts assessed as induction of HMOX protein expression at 0.156 uM in presence of 0.1 uM Nrf2 activator DMF incubated for 16 to 18 hrs by immunostaining relative to control.
For test [15] the target is unchanged. The test is described as follows: Inhibition of Bach1 in normal human lung fibroblasts assessed as induction of HMOX protein expression at 0.019 uM in presence of 0.3 uM Nrf2 activator DMF incubated for 16 to 18 hrs by immunostaining relative to control.
Test [16] has the same target. Description: Inhibition of Bach1 in normal human lung fibroblasts assessed as induction of HMOX protein expression at 0.019 uM in presence of 1 uM Nrf2 activator DMF incubated for 16 to 18 hrs by immunostaining relative to control.
The target is the same in test [17]. Description: Inhibition of Bach1 in normal human lung fibroblasts assessed as induction of HMOX protein expression at 0.019 uM in presence of 30 uM Nrf2 activator DMF incubated for 16 to 18 hrs by immunostaining relative to control.
For test [18] the target is unchanged. Description: Inhibition of Bach1 in normal human lung fibroblasts assessed as induction of HMOX protein expression at 0.078 uM in presence of 30 uM Nrf2 activator DMF incubated for 16 to 18 hrs by immunostaining relative to control.
Test [19] has the same target. Description: Inhibition of Bach1 in normal human lung fibroblasts assessed as induction of HMOX protein expression at 0.156 uM in presence of 30 uM Nrf2 activator DMF incubated for 16 to 18 hrs by immunostaining relative to control.

Take `CNC(=O)c1ccc2c(c1)nc(Nc1nc3ccc(OC(F)(F)F)cc3s1)n2C`: the fold change (FC) in [1] amounted to 1.92.
For the compound `Cn1c(Nc2nc3ccc(C(F)(F)F)cc3s2)nc2cc(C(=O)NCCOCCO)ccc21`, the Activity in [2] was 4.94%; in test [3] it was 4.52%; in [4], 7.63%; in test [5] it was 26.4%; in test [6] it was 80.2%; in [7], 90.3%. In addition, the Activity in [8] was 99.2%; in test [9] it was 100%; in test [10], 91.3%. For the same compound, the fold change (FC) in [1] was found to be 4.34; in test [11] it was 1.31; in test [12], 1.81; in test [13], 2.87; in test [14], 4.89; in test [15], 1.44. Besides, the fold change (FC) was 2.17 in test [16], 4.9 in [17], 4.8 in test [18] and 6.18 in test [19].
In the case of `COCCNC(=O)c1cnc2c(c1)nc(Nc1nc3ccc(OC(F)(F)F)cc3s1)n2C`, the Activity turned out to be 1.8% in [2]; 2.55% in test [3]; 8.27% in [4]; 7.52% in test [5]; 54.6% in [6]; 55.2% in test [7]. Also, the Activity stood at 79.6% in test [8], 99.7% in test [9] and 86.8% in [10]. In addition, the fold change (FC) is 1.46 in test [1]; 1.17 in [11]; 1.07 in [12]; 1.21 in test [13]; 1.73 in test [14]; 1.43 in [15]. Besides, the fold change (FC) in [16] turned out to be 1.57; in test [17], 4.23; in [18], 4.52; in test [19], 4.99.
For `CN(C)C(=O)CNC(=O)c1ccc2c(c1)nc(Nc1nc3ccc(C(F)(F)F)cc3s1)n2C`, the Activity in [2] was 1.18%; in [3] it was 2.37%; in [4] it was 6.49%; in [5] it was 10.2%; in test [6], 51.5%; in test [7] it was 81.8%. Further, the Activity in test [8] was 89%; in test [9], 100%; in test [10], 96.2%. Also, the fold change (FC) in test [1] is 1.59; in test [11] it was 1.1; in test [12], 1.28; in test [13] it was 1.48; in [14], 2.54; in test [15], 1.24. In addition, the fold change (FC) in [16] is 1.68; in [17], 4.65; in test [18], 6.18; in test [19], 5.49.
